Bounds are passed on as bounds.

Here are results for one substance from patent US20130129656A1, “"GREEN" DIESTER AMINES AND PERSONAL CARE PRODUCTS” (CRODA, INC., priority 2010, published 2013).

Data set [1] can be described thus: Biodegradability via method OECD 301B. The following applies: after 29 days. The text has this:
In some embodiments, the compounds of the present invention are biodegradable as provided by standardized OECD 301B testing. The testing methodology is described in the “OECD Guideline for Testing Chemicals,” section 301, the disclosure of which is incorporated by reference. Specifically, the compounds of the present invention showing a biodegradability of at least about 50% according to the OECD 301B testing method. In some embodiments, the compounds of the present invention have a biodegradability of between about 50% to about 81% according to the OECD 301B testing method.
(§1) Quat from example 3 was tested for biodegradability via method OECD 301B and Aquatic Toxicity via method OECD 202.

Data set [2] is described as follows: Warehouse storage stability of flaked samples in a stability oven at 95° F. Format: physicochemical. The following applies: flaked sample, stability oven set at 95° F, after 8 weeks. The method, then:
The diester compositions may be blended with, for example, alkylamidopropyl dimethylamines, such as Incromine BD supplied by Croda Inc., to yield a waxy flakeable or pastillatable composition with improved high temperature warehouse storage stability. Stability in this case being defined as resistance of the waxy particles from fusing together at elevated warehouse storage temperatures of about 95° F. Additional information on flakeability/pastillatability can be found in U.S. Pat. No. 6,638,497, the disclosure of which is hereby incorporated by reference herein.
In some embodiments, it is desirable that the diesters of the claimed invention be either liquids or waxy solids in pastille form at room temperature for ease of use. […] By adding behenamidopropydimethylamine, the high temperature storage stability of the diester was increased, allowing for it to be warehoused or transported in conditions were the temperature can exceed 95° F. without the pastilles fusing together.

The nature of data set [3]: Wet combing evaluation of lotions (combing force reduction). The method, then:
Lotions with and without Example 3 Quat were prepared and evaluated for combing force reduction.

The next data set concerns daphnia magna. Kind of data set: Aquatic toxicity via method OECD 202 (Daphnia sp. Acute Immobilization Test). The data set is classed as in vivo. Conditions: OECD 202, daphnia magna. The method, then:
In some embodiments, the compounds of the present invention are believed to have low aquatic toxicities. […] […] The testing methodology is described in “OECD Guideline for Testing of Chemicals,” section 202, the disclosure of which is incorporated by reference.
as §1

[4] abbreviates: wet combing, lotion with 1.5 % Example 3 Quat, average of 10 tresses.

In data set [1], “Methosulfate QUAT of PPG-6 N-Methyldiethanolamine Di-Behenate [Example 3]” gave a Biodegraded of 67%. Also, the “Warehouse storage stability (state of flakes)” value in data set [2] is recorded as “fused together”. The “Conditioning (in words)” value in data set [3] (lotion with the quat, versus lotion without) is recorded as “improved conditioning”. Besides, in data set [3] (setting [4]), the “% Change of Combing Force (gmf)” value is listed as −84.62% and the “% Change of Total Work Done (Joules)” value was −88.76%. Moreover, the “48 hour EC50 (aquatic toxicity)” value with daphnia magna was greater than 100 µg/mL.
